How the values were obtained:
Sphaerotheca fuliginea = assay: Test of examining control effect on Sphaerotheca fuliginea (potted cucumber plants); format: in vivo; details: Podosphaera fuliginea, 336 h; 10% wettable powder adjusted to 125 ppm, 15 ml/pot sprayed on potted cucumber plants one day before spray inoculation; assessed after 14 days in greenhouse; read-out: Determination of control effect (preventive value) on Sphaerotheca fuliginea
Procedure, shortened: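 Control effect rated high at preventive value 60–100% and low below 60%, from lesion area relative to untreated plants 14 days after spray inoculation with S. fuliginea (1.0×10^5 cells/ml). Compound applied at 125 ppm as wettable-powder spray one day before inoculation, on 2nd-leaf-stage Sagamihanjiro cucumber.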

Tetranychus urticae eggs = assay: Test of examining effect on Tetranychus urticae eggs (ovicidal rate); format: in vivo; details: 144 h, 0.4 ml sprayed, unhatched eggs counted six days later, read-out: Determination (ovicidal rate)
Experimental: Thereafter, the released female adults were removed. […] Six days later, the number of unhatched eggs was counted, and an ovicidal rate was calculated.

[1] = system: Pseudoperonospora cubensis; assay: Test of examining control effect on Pseudoperonospora cubensis (potted cucumber plants); format: in vivo; details: 96 h, 10% wettable powder adjusted to 125 ppm, 15 ml/pot sprayed on potted cucumber plants one day before spray inoculation, assessed after 1 day wet chamber and 3 days greenhouse, read-out: Determination of control effect (preventive value) on Pseudoperonospora cubensis
Procedure, shortened: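 Preventive treatment: 125 ppm sample agent solution (from 10% wettable powder) sprayed at 15 ml/pot on 2.5-leaf Sagamihanjiro cucumbers, then P. cubensis inoculated next day at 1.0×10^4 cells/ml. Incubation was 1 day wet at 21° C plus 3 days greenhouse. Lesion area rate compared with untreated gives preventive value (≥60% high).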

Phytophthora infestans = assay: whole plant or invertebrate; format: in vivo; details: in Solanum lycopersicum, 96 h, read-out: Determination of control effect (preventive value)

| Compound | pest or weed control at 125 µg/mL (Sphaerotheca fuliginea) [%] | pest or weed control at 250 ppm (Tetranychus urticae eggs) [%] | pest or weed control at 125 µg/mL [1] [%] | pest or weed control at 125 ppm (Phytophthora infestans) [%] | melting point [°C] |
| --- | --- | --- | --- | --- | --- |
| COc1ccc(C#CCCNc2ncnc3sccc23)cc1OC [compound 24] | 60 to 100 | 60 to 80 | 60 to 100 | 0 to 60 | 182 to 184 |
| CC(CC#Cc1ccccc1C(F)(F)F)Nc1ncnc2sccc12 (stereo not drawn) [compound 233] | 60 to 100 | 80 to 95 | 60 to 100 | 60 to 100 | – |
| CC(CC#Cc1ccc(C(F)(F)F)cc1)Nc1ncnc2sccc12 (stereo not drawn) [compound 235] | 60 to 100 | ≥ 95 | 60 to 100 | 60 to 100 | – |
| CC(CC#Cc1ccc(S(F)(F)(F)(F)F)cc1)Nc1ncnc2sccc12 (stereo not drawn) [compound 238] | 60 to 100 | ≥ 95 | 60 to 100 | 60 to 100 | – |
| Cc1ccccc1C#CCC(C)Nc1ncnc2sccc12 (stereo not drawn) [compound 239] | 60 to 100 | 80 to 95 | 60 to 100 | 60 to 100 | – |
| CC(CC#Cc1ccc(C(C)C)cc1)Nc1ncnc2sccc12 (stereo not drawn) [compound 241] | 60 to 100 | ≥ 95 | 60 to 100 | 60 to 100 | – |
| CC(CC#Cc1ccc(Cl)cc1CO)Nc1ncnc2sccc12 (stereo not drawn) [compound 245] | 60 to 100 | 80 to 95 | 60 to 100 | 60 to 100 | – |
| Cc1cc(F)ccc1C#CCC(C)Nc1ncnc2sccc12 (stereo not drawn) [compound 246] | 60 to 100 | 80 to 95 | 60 to 100 | 60 to 100 | – |
| CC(CC#Cc1ccc(F)cc1Cl)Nc1ncnc2sccc12 (stereo not drawn) [compound 247] | 60 to 100 | 60 to 80 | 60 to 100 | 60 to 100 | – |
| CC(CC#Cc1cc(F)ccc1C(F)(F)F)Nc1ncnc2sccc12 (stereo not drawn) [compound 248] | 60 to 100 | 60 to 80 | 60 to 100 | 0 to 60 | – |
| CC(CC#Cc1ccc(F)cc1C(F)(F)F)Nc1ncnc2sccc12 (stereo not drawn) [compound 249] | 60 to 100 | ≥ 95 | 60 to 100 | 60 to 100 | – |
| CC(CC#Cc1ccc(S(F)(F)(F)(F)F)cc1Cl)Nc1ncnc2sccc12 (stereo not drawn) [compound 253] | 60 to 100 | 60 to 80 | 60 to 100 | 0 to 60 | – |
| CC(CC#Cc1ccc(C(F)(F)F)cc1Cl)Nc1ncnc2sccc12 (stereo not drawn) [compound 257] | 60 to 100 | 80 to 95 | 60 to 100 | 60 to 100 | – |
| CC(CC#Cc1ccc(Cl)cc1C(F)(F)F)Nc1ncnc2sccc12 (stereo not drawn) [compound 258] | 60 to 100 | 60 to 80 | 60 to 100 | 60 to 100 | – |
| Cc1ccc(C#CCC(C)Nc2ncnc3sccc23)c(C)c1 (stereo not drawn) [compound 259] | 60 to 100 | ≥ 95 | 60 to 100 | 60 to 100 | – |
| CCC(CC#Cc1ccccc1)Nc1ncnc2sccc12 (stereo not drawn) [compound 267] | 60 to 100 | 60 to 80 | 60 to 100 | 0 to 60 | – |

| Compound | pest or weed control at 125 µg/mL (Sphaerotheca fuliginea) [%] | pest or weed control at 250 ppm (Tetranychus urticae eggs) [%] | pest or weed control at 125 µg/mL [1] [%] | pest or weed control at 125 ppm (Phytophthora infestans) [%] | melting point [°C] |
| --- | --- | --- | --- | --- | --- |
| CCCCC(CC#Cc1ccccc1)Nc1ncnc2sccc12 (stereo not drawn) [compound 269] | 60 to 100 | 60 to 80 | 60 to 100 | 0 to 60 | – |
| CC(CC#Cc1ccc(S(F)(F)(F)(F)F)cc1)Nc1ncnc2ccccc12 (stereo not drawn) [compound 277] | 60 to 100 | ≥ 95 | 60 to 100 | 0 to 60 | – |
| CC(CC#Cc1ccc(S(F)(F)(F)(F)F)cc1Cl)Nc1ncnc2ccccc12 (stereo not drawn) [compound 283] | 60 to 100 | 60 to 80 | 60 to 100 | 60 to 100 | – |
| CC(CC#Cc1ccc(Cl)cc1C(F)(F)F)Nc1ncnc2ccccc12 (stereo not drawn) [compound 285] | 60 to 100 | ≥ 95 | 60 to 100 | 60 to 100 | – |
| CC(CC#Cc1ccc(F)cc1C(F)(F)F)Nc1ncnc2ccccc12 (stereo not drawn) [compound 286] | 60 to 100 | 80 to 95 | 60 to 100 | 60 to 100 | – |
| CC(CC#Cc1ccc(C(F)(F)F)cc1F)Nc1ncnc2ccccc12 (stereo not drawn) [compound 288] | 60 to 100 | ≥ 95 | 60 to 100 | 0 to 60 | – |
| CC(CC#Cc1ccc(C(C)C)cc1C(F)(F)F)Nc1ncnc2ccccc12 (stereo not drawn) [compound 289] | 60 to 100 | ≥ 95 | 60 to 100 | 0 to 60 | – |
| CC(CC#Cc1ccc(Cl)cc1C(F)(F)F)Nc1ncnc2c(F)cccc12 (stereo not drawn) [compound 348] | 60 to 100 | 80 to 95 | 60 to 100 | 0 to 60 | – |
| CC(CC#Cc1ccc(Cl)cc1C(F)(F)F)Nc1ncnc2cccc(Cl)c12 (stereo not drawn) [compound 350] | 60 to 100 | ≥ 95 | 60 to 100 | 0 to 60 | – |
| Fc1cc2ncnc(NCCC#Cc3ccc(Cl)cc3C(F)(F)F)c2cc1F [compound 355] | 60 to 100 | ≥ 95 | 60 to 100 | 60 to 100 | – |
| Cc1c(Cl)ncnc1NCCC#Cc1ccccc1 [compound 356] | 60 to 100 | 80 to 95 | 60 to 100 | 60 to 100 | – |
| CC(F)c1ncnc(NCCC#Cc2ccccc2)c1Cl (stereo not drawn) [compound 376] | 60 to 100 | ≥ 95 | 60 to 100 | 60 to 100 | – |
| CC(F)c1ncnc(NCCC#Cc2ccc(Cl)cc2C(F)(F)F)c1Cl (stereo not drawn) [compound 377] | 60 to 100 | ≥ 95 | 60 to 100 | 0 to 60 | – |
| CC(CC#Cc1ccc(Cl)cc1C(F)(F)F)Nc1ncnc(C(C)F)c1Cl (stereo not drawn) [compound 382] | 60 to 100 | ≥ 95 | 60 to 100 | 0 to 60 | – |
| CC(CC#Cc1ccc(Cl)cc1C(F)(F)F)Nc1ncnc2ncccc12 (stereo not drawn) [compound 384] | 60 to 100 | ≥ 95 | 60 to 100 | 0 to 60 | – |
| Cc1ncnc(NC(C)CC#Cc2ccc(Cl)cc2C(F)(F)F)c1Cl (stereo not drawn) [compound 385] | 60 to 100 | ≥ 95 | 60 to 100 | 0 to 60 | – |
